Laboratory results: the supplement of paper PMC10307832

Tests used:
Assay in all cases: relative viability (nuclei count vs DMSO), 5 days (fraction); higher = more cells survive
AZD8055 + Vorinostat = compound: COc1ccc(-c2ccc3c(N4CCOC[C@@H]4C)nc(N4CCOC[C@@H]4C)nc3n2)cc1CO [AZD8055] + O=C(CCCCCCC(=O)Nc1ccccc1)NO [Vorinostat] (partner 1 µM)
Outline: (§1)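 After 5 days of treatment, lung cancer cells in 1536-well plates were fixed and stained in a single step (final 0.05% Triton X-100, 1% formaldehyde, 1 ug/ml Hoechst) and their nuclei counted on 4× images. Treatment had been applied by pin tool the day after seeding as one drug alone or as a fixed anchor-drug dose with five library-drug doses (not always all listed) in √10 steps. Relative viability is the nuclei count of treated wells divided by that of vehicle wells, and values are medians of duplicate plates.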

AZD8055 + Dasatinib = compound: COc1ccc(-c2ccc3c(N4CCOC[C@@H]4C)nc(N4CCOC[C@@H]4C)nc3n2)cc1CO [AZD8055] + Cc1nc(Nc2ncc(C(=O)Nc3c(C)cccc3Cl)s2)cc(N2CCN(CCO)CC2)n1 [Dasatinib] (partner 0.075 µM)
Outline: as §1

AZD8055 + Pictilisib = compound: COc1ccc(-c2ccc3c(N4CCOC[C@@H]4C)nc(N4CCOC[C@@H]4C)nc3n2)cc1CO [AZD8055] + CS(=O)(=O)N1CCN(Cc2cc3nc(-c4cccc5[nH]ncc45)nc(N4CCOCC4)c3s2)CC1 [Pictilisib] (partner 1 µM)
Outline: as §1

AZD8055 + Crizotinib = compound: COc1ccc(-c2ccc3c(N4CCOC[C@@H]4C)nc(N4CCOC[C@@H]4C)nc3n2)cc1CO [AZD8055] + C[C@@H](Oc1cc(-c2cnn(C3CCNCC3)c2)cnc1N)c1c(Cl)ccc(F)c1Cl [Crizotinib] (partner 1 µM)
Outline: as §1

Cell Line	relative viability (AZD8055 + Vorinostat; first compound 0.01 µM)	relative viability (AZD8055 + Vorinostat; first compound 0.03162 µM)	relative viability (AZD8055 + Vorinostat; first compound 0.1 µM)	relative viability (AZD8055 + Vorinostat; first compound 0.3162 µM)	relative viability (AZD8055 + Vorinostat; first compound 1 µM)	relative viability (AZD8055 + Dasatinib; first compound 0.01 µM)	relative viability (AZD8055 + Dasatinib; first compound 0.03162 µM)	relative viability (AZD8055 + Dasatinib; first compound 0.1 µM)	relative viability (AZD8055 + Dasatinib; first compound 0.3162 µM)	relative viability (AZD8055 + Dasatinib; first compound 1 µM)	relative viability (AZD8055 + Pictilisib; first compound 0.01 µM)	relative viability (AZD8055 + Pictilisib; first compound 0.03162 µM)	relative viability (AZD8055 + Pictilisib; first compound 0.1 µM)	relative viability (AZD8055 + Pictilisib; first compound 0.3162 µM)	relative viability (AZD8055 + Pictilisib; first compound 1 µM)	relative viability (AZD8055 + Crizotinib; first compound 0.01 µM)	relative viability (AZD8055 + Crizotinib; first compound 0.03162 µM)	relative viability (AZD8055 + Crizotinib; first compound 0.1 µM)	relative viability (AZD8055 + Crizotinib; first compound 0.3162 µM)	relative viability (AZD8055 + Crizotinib; first compound 1 µM)
LXF-289	0.745	0.754	0.709	0.523	0.515	0.191	0.222	0.192	0.118	0.109	0.83	0.673	0.556	0.411	0.454	0.902	0.855	0.807	0.702	0.686
NCI-H23	0.44	0.457	0.449	0.235	0.251	0.874	0.732	0.572	0.276	0.27	0.472	0.314	0.314	0.251	0.293	0.562	0.507	0.41	0.295	0.265
NCI-H322M	0.85	0.839	0.8	0.511	0.538	0.259	0.265	0.251	0.246	0.249	0.46	0.463	0.436	0.444	0.422	0.868	1.03	0.825	0.796	0.478
NCI-H358	0.775	0.701	0.624	0.207	0.121	0.169	0.173	0.0957	0.0735	0.0998	0.334	0.301	0.233	0.222	0.245	0.678	0.934	0.69	0.442	0.211
NCI-H441	0.985	0.72	0.534	0.346	0.246	0.538	0.608	0.474	0.281	0.245	0.518	0.483	0.375	0.215	0.267	0.767	0.667	0.565	0.359	0.232
NCI-H460	1.02	0.629	0.498	0.0504	0.0551	0.554	0.365	0.213	0.0862	0.0669	0.338	0.295	0.262	0.226	0.264	1.05	0.654	0.818	0.106	0.0777
NCI-H520	0.621	0.406	0.242	0.188	0.154	0.142	0.13	0.15	0.14	0.171	0.301	0.19	0.202	0.163	0.159	0.58	0.53	0.37	0.195	0.194
NCI-H596	0.565	0.567	0.441	0.455	0.428	0.594	0.516	0.468	0.286	0.301	0.341	0.363	0.32	0.308	0.337	1	0.78	0.624	0.322	0.423
